{"source": "ChEMBL document CHEMBL5257035", "about": "“Nucleoside Derived Antibiotics to Fight Microbial Drug Resistance: New Utilities for an Established Class of Drugs?” (J Med Chem, 2016)", "key": {"[1]": {"test_system": "Mycobacterium tuberculosis", "experiment": "Antimycobacterial activity against Mycobacterium tuberculosis H37Rv assessed as reduction in microbial growth after 7 days by alamar blue assay", "format": "functional, organism-based", "settings": "168 h"}, "[2]": {"test_system": "Mycobacterium tuberculosis", "experiment": "Antimycobacterial activity against Mycobacterium tuberculosis assessed as reduction in microbial growth", "format": "functional"}, "[3]": {"molecular_target": "Hypoxanthine-guanine phosphoribosyltransferase (Homo sapiens, UniProt P00492)", "sequence (P00492 whole entry)": "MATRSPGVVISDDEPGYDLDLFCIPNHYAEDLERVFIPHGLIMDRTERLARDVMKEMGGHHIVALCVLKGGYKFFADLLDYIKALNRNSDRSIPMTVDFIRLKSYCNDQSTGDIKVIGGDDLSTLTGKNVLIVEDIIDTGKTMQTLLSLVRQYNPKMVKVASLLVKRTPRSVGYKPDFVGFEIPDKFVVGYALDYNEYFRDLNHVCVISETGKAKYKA", "experiment": "Binding affinity to human HGPRT assessed as inhibition of constant"}, "Glutamine--tRNA ligase": {"molecular_target": "Glutamine--tRNA ligase (Escherichia coli (strain K12), UniProt P00962)", "sequence (P00962 whole entry)": "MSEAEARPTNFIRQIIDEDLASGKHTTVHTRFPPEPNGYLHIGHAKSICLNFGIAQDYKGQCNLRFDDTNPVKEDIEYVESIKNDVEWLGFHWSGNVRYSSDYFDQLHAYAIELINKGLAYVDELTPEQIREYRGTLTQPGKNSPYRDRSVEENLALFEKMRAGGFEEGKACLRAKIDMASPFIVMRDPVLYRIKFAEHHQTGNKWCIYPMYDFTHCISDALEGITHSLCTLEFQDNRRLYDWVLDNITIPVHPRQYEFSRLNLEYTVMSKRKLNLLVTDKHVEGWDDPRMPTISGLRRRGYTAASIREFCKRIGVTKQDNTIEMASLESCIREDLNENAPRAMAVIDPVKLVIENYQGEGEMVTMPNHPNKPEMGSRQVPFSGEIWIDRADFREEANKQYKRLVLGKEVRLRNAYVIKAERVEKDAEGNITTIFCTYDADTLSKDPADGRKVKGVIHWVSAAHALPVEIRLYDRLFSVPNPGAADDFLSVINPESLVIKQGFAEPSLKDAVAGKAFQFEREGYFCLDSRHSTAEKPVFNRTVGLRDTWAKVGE", "experiment": "Binding affinity to Escherichia coli K12 glutaminyl-tRNA synthetase assessed as inhibition constant"}, "Methionine--tRNA ligase": {"molecular_target": "Methionine--tRNA ligase (Escherichia coli K-12, UniProt P00959)", "sequence (P00959 whole entry)": "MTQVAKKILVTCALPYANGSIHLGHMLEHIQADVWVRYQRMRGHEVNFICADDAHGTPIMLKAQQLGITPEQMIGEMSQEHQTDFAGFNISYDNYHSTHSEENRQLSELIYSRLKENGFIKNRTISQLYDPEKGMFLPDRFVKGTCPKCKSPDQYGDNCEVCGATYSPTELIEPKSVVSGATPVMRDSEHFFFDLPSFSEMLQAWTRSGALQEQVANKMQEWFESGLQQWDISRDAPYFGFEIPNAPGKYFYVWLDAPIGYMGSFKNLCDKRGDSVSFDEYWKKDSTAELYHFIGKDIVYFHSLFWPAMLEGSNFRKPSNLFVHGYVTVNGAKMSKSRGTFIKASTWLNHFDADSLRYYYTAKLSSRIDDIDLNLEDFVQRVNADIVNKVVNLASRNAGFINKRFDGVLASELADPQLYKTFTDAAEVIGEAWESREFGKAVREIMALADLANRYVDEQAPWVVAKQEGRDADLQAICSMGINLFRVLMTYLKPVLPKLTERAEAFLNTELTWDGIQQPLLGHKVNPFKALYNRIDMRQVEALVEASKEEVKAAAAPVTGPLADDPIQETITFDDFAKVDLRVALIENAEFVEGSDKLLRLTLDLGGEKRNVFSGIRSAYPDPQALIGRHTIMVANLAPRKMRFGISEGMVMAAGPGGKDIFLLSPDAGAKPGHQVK", "experiment": "Inhibition of Escherichia coli K12 methionyl tRNA synthetase"}, "Moraxella catarrhalis": {"test_system": "Moraxella catarrhalis", "experiment": "Antibacterial activity against Moraxella catarrhalis assessed as bacterial growth inhibition incubated for 24 hrs by micro-broth dilution method", "format": "functional"}, "Bacillus subtilis [4]": {"test_system": "Bacillus subtilis", "experiment": "Antibacterial activity against Bacillus subtilis assessed as bacterial growth inhibition incubated for 24 hrs by micro-broth dilution method", "format": "functional"}, "Enterococcus faecalis": {"test_system": "Enterococcus faecalis", "experiment": "Antibacterial activity against Enterococcus faecalis assessed as bacterial growth inhibition incubated for 24 hrs by micro-broth dilution method", "format": "functional"}, "Streptococcus pyogenes": {"test_system": "Streptococcus pyogenes", "experiment": "Antibacterial activity against Streptococcus pyogenes assessed as bacterial growth inhibition incubated for 24 hrs by micro-broth dilution method", "format": "functional"}, "Streptococcus pneumoniae": {"test_system": "Streptococcus pneumoniae", "experiment": "Antibacterial activity against Streptococcus pneumoniae B1 assessed as bacterial growth inhibition incubated for 24 hrs by micro-broth dilution method", "format": "functional"}, "Staphylococcus aureus": {"test_system": "Staphylococcus aureus", "experiment": "Antibacterial activity against Staphylococcus aureus ATCC 25923 assessed as bacterial growth inhibition measured after 18 hrs by CLSI protocol based two-fold serial microdilution method", "format": "functional"}, "Haemophilus influenzae": {"test_system": "Haemophilus influenzae", "experiment": "Antibacterial activity against Haemophilus influenzae assessed as bacterial growth inhibition incubated for 24 hrs by micro-broth dilution method", "format": "functional"}, "Enterococcus faecium": {"test_system": "Enterococcus faecium", "experiment": "Antibacterial activity against Enterococcus faecium assessed as bacterial growth inhibition incubated for 24 hrs by micro-broth dilution method", "format": "functional"}, "[5]": {"test_system": "Staphylococcus epidermidis", "experiment": "Antibacterial activity against Staphylococcus epidermidis ATCC 12228 assessed as microbial growth inhibition incubated for 24 hrs", "format": "functional"}, "[6]": {"test_system": "Staphylococcus saprophyticus", "experiment": "Antibacterial activity against Staphylococcus saprophyticus ATCC 15305 assessed as bacterial growth inhibition after 20 hrs by CLSI based-broth microdilution method", "format": "functional"}, "Klebsiella pneumoniae [7]": {"test_system": "Klebsiella pneumoniae", "experiment": "Antibacterial activity against Klebsiella pneumoniae assessed as bacterial growth inhibition incubated for 24 hrs by micro-broth dilution method", "format": "functional"}, "Escherichia coli": {"test_system": "Escherichia coli", "experiment": "Antibacterial activity against Escherichia coli K12 assessed as bacterial growth inhibition measured after 24 hrs by micro broth dilution method", "format": "functional"}, "Bacillus cereus": {"test_system": "Bacillus cereus", "experiment": "Antibacterial activity against Bacillus cereus ATCC 11778 assessed as bacterial growth inhibition", "format": "functional"}, "[8]": {"experiment": "Binding affinity to Escherichia coli methionyl adenylate synthetase"}, "[9]": {"test_system": "Mycolicibacterium smegmatis", "experiment": "Antimycobacterial activity against Mycobacterium smegmatis SG 125A assessed as inhibition of bacterial growth", "format": "functional"}, "[10]": {"test_system": "Mycobacterium tuberculosis", "experiment": "Antimycobacterial activity against Mycobacterium tuberculosis H37Rv assessed as inhibition of bacterial growth", "format": "functional"}, "Bacillus subtilis [11]": {"test_system": "Bacillus subtilis", "experiment": "Antibacterial activity against Bacillus subtilis ATCC 6633 assessed as bacterial growth inhibition by agar diffusion method", "format": "functional"}, "Klebsiella pneumoniae [12]": {"test_system": "Klebsiella pneumoniae", "experiment": "Antibacterial activity against Klebsiella pneumoniae assessed as bacterial growth inhibition", "format": "functional"}, "[13]": {"experiment": "Inhibition of GMP synthase (unknown origin)", "design": "species or system Homo sapiens"}, "[14]": {"experiment": "Toxicity in rat", "settings": "in vivo"}, "Bacillus subtilis [15]": {"test_system": "Bacillus subtilis", "experiment": "Antibacterial activity against Bacillus subtilis ATCC 6633 assessed as reduction in bacterial cell growth", "format": "functional"}, "[16]": {"experiment": "Inhibition of Escherichia coli topoisomerase 4"}}, "data": [{"smiles": "CCOC(=O)[C@H](Cc1ccccc1)NP(=O)(N[C@@H](Cc1ccccc1)C(=O)OCC)OCOCCN", "values": [{"measurement": "IC50", "setting": "[1]", "result": 5, "unit": "µM"}, {"measurement": "MIC", "setting": "[2]", "result": 4.5, "unit": "µM"}, {"measurement": "Ki", "setting": "[3]", "result": 0.69, "unit": "µM"}]}, {"smiles": "NC(=O)CCC(N)COP(=O)(O)OC[C@H]1O[C@@H](n2cnc3c(N)ncnc32)[C@H](O)[C@@H]1O", "note": "(stereo partly drawn)", "values": [{"measurement": "Ki", "setting": "Glutamine--tRNA ligase", "result": 0.28, "unit": "µM"}]}, {"smiles": "CCC(C)C(N)C(=O)NS(=O)(=O)OC[C@H]1O[C@@H](n2cnc3c(N)nc(I)nc32)[C@H](O)[C@@H]1O", "note": "(stereo partly drawn)", "values": [{"measurement": "IC50", "setting": "Methionine--tRNA ligase", "result": 0.014, "unit": "µM"}]}, {"smiles": "CCC(C)C(N)C(=O)NS(=O)(=O)OC[C@H]1O[C@@H](CCn2nnc(-c3ccc(Oc4ccccc4)cc3)n2)[C@H](O)[C@@H]1O", "note": "(stereo partly drawn)", "values": [{"measurement": "MIC", "setting": "Moraxella catarrhalis", "result": 2, "unit": "µg/mL"}, {"measurement": "MIC", "setting": "Bacillus subtilis [4]", "result": 2, "unit": "µg/mL"}, {"measurement": "MIC", "setting": "Enterococcus faecalis", "result": 2, "unit": "µg/mL"}, {"measurement": "MIC", "setting": "Streptococcus pyogenes", "result": 2, "unit": "µg/mL"}, {"measurement": "MIC", "setting": "Streptococcus pneumoniae", "result": 2, "unit": "µg/mL"}, {"measurement": "MIC", "setting": "Staphylococcus aureus", "result": 2, "unit": "µg/mL"}, {"measurement": "MIC", "setting": "Haemophilus influenzae", "result": 2, "unit": "µg/mL"}, {"measurement": "MIC", "setting": "Enterococcus faecium", "result": 2, "unit": "µg/mL"}, {"measurement": "MIC", "setting": "[5]", "result": 2, "unit": "µg/mL"}, {"measurement": "MIC", "setting": "[6]", "result": 2, "unit": "µg/mL"}, {"measurement": "MIC", "setting": "Klebsiella pneumoniae [7]", "result": 2, "unit": "µg/mL"}]}, {"smiles": "CSCC[C@H](N)C(=O)OC[C@H]1O[C@@H](n2cnc3c(N)ncnc32)[C@H](O)[C@@H]1O", "values": [{"measurement": "MIC", "setting": "Escherichia coli", "result": 0.5, "unit": "µg/mL"}, {"measurement": "MIC", "setting": "Bacillus cereus", "result": 32, "unit": "µg/mL"}, {"measurement": "Ki", "setting": "[8]", "result": 10.9, "unit": "µM"}]}, {"smiles": "CCC(C)CCCCCCCC/C=C/C(=O)N[C@H]1[C@H](O[C@@H]2O[C@@H](CO)[C@H](O)[C@H](O)[C@H]2NC(C)=O)O[C@H](C[C@@H](C)[C@H]2O[C@@H](N3CCC(=O)NC3=O)[C@H](O)[C@@H]2O)[C@H](O)[C@@H]1O", "note": "(stereo partly drawn)", "values": [{"measurement": "MIC", "setting": "[9]", "result": 3.1, "unit": "µg/mL"}, {"measurement": "MIC", "setting": "[10]", "result": 10, "unit": "µg/mL"}, {"measurement": "MIC", "setting": "Bacillus subtilis [11]", "result": 0.31, "unit": "µg/mL"}]}, {"smiles": "Cc1cn([C@H]2C[C@H](N=[N+]=[N-])[C@@H](COC(=O)C(=O)N[C@@H](CC(C)C)C(=O)O)O2)c(=O)[nH]c1=O", "values": [{"measurement": "MIC", "setting": "Klebsiella pneumoniae [12]", "result": 0.125, "unit": "µg/mL"}]}, {"smiles": "NC(=O)c1ncn([C@@H]2O[C@H](CO)[C@@H](O)[C@H]2O)c1O", "note": "[MIZORIBINE]", "values": [{"measurement": "Ki", "setting": "[13]", "result": 100, "unit": "µM"}]}, {"smiles": "CCC(C)CCCCCCCCCCC(=O)N[C@H]1[C@H](O[C@@H]2O[C@@H](CO)[C@H](O)[C@H](O)[C@H]2NC(C)=O)O[C@H](C[C@@H](C)[C@H]2O[C@@H](n3ccc(=O)[nH]c3=O)[C@H](O)[C@@H]2O)[C@H](O)[C@@H]1O", "note": "(stereo partly drawn)", "values": [{"measurement": "LD50", "setting": "[14]", "result": 0.137, "unit": "mg/kg"}, {"measurement": "MIC", "setting": "Bacillus subtilis [15]", "result": 0.1, "unit": "µg/mL"}, {"measurement": "MIC", "setting": "Bacillus subtilis [11]", "result": 0.1, "unit": "µg/mL"}]}, {"smiles": "CCC(C)C(N)C(=O)NS(=O)(=O)OC[C@H]1O[C@@H](CCn2nnc(-c3ccccc3)n2)[C@H](O)[C@@H]1O", "note": "(stereo partly drawn)", "values": [{"measurement": "Ki", "setting": "[16]", "result": 1.3, "unit": "µg/mL"}]}]}
